Test results: the NIST ThermoML archive (doi:10.1016/j.jct.2014.03.021)
Numbers after ± are expanded uncertainties.

Experiment: refractive index (Na D-line) (dimensionless); xn = mol fraction of the nth substance listed
Conditions: 101 kPa, Liquid, Standard Abbe refractometry

C[C@H](O)C(=O)[O-].C[N+](C)(C)CCO + O
refractive index
Conditions | 293.15 K | 298.15 K | 303.15 K | 308.15 K | 313.15 K | 318.15 K | 323.15 K
x1 = 0.0258 | 1.36903 ± 0.00047 | 1.36828 ± 0.00047 | 1.36748 ± 0.00046 | 1.36732 ± 0.00046 | 1.36664 ± 0.00045 | 1.36649 ± 0.00045 | 1.36665 ± 0.00046
x1 = 0.0511 | 1.39091 ± 0.00048 | 1.38998 ± 0.00047 | 1.38899 ± 0.00047 | 1.38799 ± 0.00047 | 1.38719 ± 0.00046 | 1.38658 ± 0.00046 | 1.38756 ± 0.00046
x1 = 0.074 | 1.41121 ± 0.0004 | 1.4101 ± 0.00039 | 1.40897 ± 0.00039 | 1.4078 ± 0.00039 | 1.40673 ± 0.00039 | 1.40601 ± 0.00039 | 1.40547 ± 0.00039
x1 = 0.1027 | 1.41982 ± 0.00035 | 1.41868 ± 0.00035 | 1.41749 ± 0.00035 | 1.4163 ± 0.00035 | 1.4151 ± 0.00035 | 1.41389 ± 0.00035 | 1.41332 ± 0.00035
x1 = 0.1965 | 1.43901 ± 0.00039 | 1.43773 ± 0.00039 | 1.43645 ± 0.00039 | 1.43516 ± 0.00039 | 1.43386 ± 0.00039 | 1.43253 ± 0.00039 | 1.43117 ± 0.00039
x1 = 0.2957 | 1.45194 ± 0.00045 | 1.45066 ± 0.00045 | 1.44934 ± 0.00045 | 1.448 ± 0.00045 | 1.44669 ± 0.00045 | 1.44535 ± 0.00045 | 1.44401 ± 0.00045
x1 = 0.416 | 1.46075 ± 0.00054 | 1.4594 ± 0.00054 | 1.45817 ± 0.00054 | 1.45679 ± 0.00054 | 1.45543 ± 0.00054 | 1.45415 ± 0.00054 | 1.45266 ± 0.00054
x1 = 0.5184 | 1.46916 ± 0.00062 | 1.46786 ± 0.00062 | 1.46656 ± 0.00062 | 1.46532 ± 0.00062 | 1.46399 ± 0.00062 | 1.46255 ± 0.00062 | 1.46151 ± 0.00062
x1 = 0.5347 | 1.46974 ± 0.00064 | 1.46843 ± 0.00064 | 1.46709 ± 0.00063 | 1.46577 ± 0.00063 | 1.46444 ± 0.00063 | 1.46311 ± 0.00064 | 1.4618 ± 0.00063
x1 = 0.6044 | 1.47013 ± 0.00069 | 1.46887 ± 0.00069 | 1.46754 ± 0.00069 | 1.4662 ± 0.00069 | 1.46489 ± 0.00069 | 1.46346 ± 0.00069 | 1.46206 ± 0.00069
x1 = 0.6931 | 1.47355 ± 0.00077 | 1.4723 ± 0.00077 | 1.47098 ± 0.00077 | 1.46966 ± 0.00077 | 1.46835 ± 0.00077 | 1.46704 ± 0.00077 | 1.46574 ± 0.00077
x1 = 0.7801 | 1.47251 ± 0.00085 | 1.47121 ± 0.00085 | 1.47001 ± 0.00085 | 1.46842 ± 0.00085 | 1.46703 ± 0.00085 | 1.46554 ± 0.00085 | 1.46388 ± 0.00085
x1 = 0.8279 | 1.47481 ± 0.00089 | 1.47368 ± 0.00089 | 1.47226 ± 0.00089 | 1.47073 ± 0.00089 | 1.46931 ± 0.00089 | 1.46789 ± 0.00089 | 1.46631 ± 0.00089
x1 = 0.8996 | 1.48014 ± 0.00096 | 1.47898 ± 0.00096 | 1.47758 ± 0.00096 | 1.47607 ± 0.00096 | 1.47467 ± 0.00096 | 1.47331 ± 0.00096 | 1.47199 ± 0.00096
